The values that follow come from patent US20240132473A1, “SULFOXIMIDE SUBSTITUTED INDAZOLE IRAK4 KINASE INHIBITOR, PREPARATION METHOD THEREOF AND USE THEREOF” (Shanghai Xunhe Pharmaceutical Technology Co. Ltd., priority 2021, published 2024).

One data set has as its target hERG potassium channel (Homo sapiens (Human), UniProt Q12809). Kind of data set: cell-based. The following applies: human. From the text:
The rapid activation of delayed rectifier outward potassium current (IKr) in humans is mainly mediated by hERG ion channel and participates in human myocardial cell repolarization. Drug blockade of this current will lead to the appearance of QT interval prolongation syndrome in clinical practice, which can easily induce acute arrhythmia and even sudden death.

Data set [1] concerns TNF-α secretion in THP-1 cells. The data set can be described thus: Inhibition of LPS-stimulated TNF-α secretion in THP-1 cells (ELISA). The data set is classed as cell-based. The following applies: Homo sapiens, LPS 1 μg/mL, 4.5 hours. The procedure: TNF-α is a key cytokine involved in the inflammatory process of the listed autoimmune disease, such as rheumatoid arthritis, psoriatic arthritis, ankylosing spondylitis, psoriasis, Crohn's disease, ulcerative colitis, etc. In this test, TNF-α secretion was triggered by incubation with bacterial lipopolysaccharides (LPS). […] The 96-well plate was rotated at 2000 rpm for 5 minutes, and then 50 μL of supernatant was taken. The content of TNF-α in the supernatant was determined by human ELISA kit, and IC50 value of the compound was calculated by XL-Fit (table 4).

The nature of data set [2]: in vivo. As to conditions: rat, po; for half-life: SD, in vivo; for AUC(0-t) / Cmax / Tmax: plasma, 25 mg/kg. The procedure: SD rats were used as the test animals.
Standard curve and preparation and processing of quality control samples:
Stock solution was diluted with 50% acetonitrile-water to obtain standard working solutions of 0.04, 0.10, 0.20, 0.40, 1.00, 2.00, 4.00 μg/mL, and quality control working solutions of 0.10, 1.00, 3.00 μg/mL. […] 200 μL of acetonitrile (containing 5 ng/mL of the internal standard loratadine) was added. After the vortex oscillation for 3 minutes, the solutions were centrifuged at 15000 rpm at 4° C. for 15 minutes. 100 μL of the supernatant was taken for LC-MS/MS analysis. WinNonlin ® 8.0 was used to calculate the experimental results.

The next data set deals with IRAK4 kinase (Homo sapiens (Human), UniProt Q9NWZ3). Kind of data set: IRAK4 kinase inhibitory activity assay (mobility shift assay, Km ATP). The data set is classed as biochemical. The following applies: MSA, ATP 37 μM (Km ATP). The procedure: The inhibitory activity (IC50) of the compound on IRAK4 kinase under Km ATP was detected by mobility shift assay (MSA). Ten drug concentration gradients were set (initial concentration 1 μM, 3-fold dilution, 2 duplicate wells per concentration). […] After incubation at 28° C. for a period of time, 10 μL of termination buffer was added to terminate the reaction. The conversion rate data was read with Caliper, and then the conversion rate was converted into inhibition rate data. According to the inhibition rate data of each concentration, the IC50 of half inhibitory concentration was calculated by Logit method (Table 3).
IRAK4 kinase, sequence (Q9NWZ3 whole entry): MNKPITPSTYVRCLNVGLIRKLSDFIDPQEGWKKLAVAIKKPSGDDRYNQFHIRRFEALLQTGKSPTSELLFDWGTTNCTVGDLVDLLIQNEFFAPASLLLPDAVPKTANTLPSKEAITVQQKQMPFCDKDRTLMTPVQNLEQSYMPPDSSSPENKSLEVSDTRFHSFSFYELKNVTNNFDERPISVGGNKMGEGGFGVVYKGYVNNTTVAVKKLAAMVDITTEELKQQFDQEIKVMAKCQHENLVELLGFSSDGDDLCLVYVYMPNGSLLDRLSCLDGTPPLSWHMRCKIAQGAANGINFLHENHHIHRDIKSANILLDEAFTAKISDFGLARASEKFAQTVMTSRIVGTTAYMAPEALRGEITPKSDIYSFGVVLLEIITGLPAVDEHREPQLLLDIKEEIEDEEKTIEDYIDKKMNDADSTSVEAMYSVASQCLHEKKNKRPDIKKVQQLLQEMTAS

Data set [3] can be described thus: in vivo. As to conditions: ICR, mouse, po. The procedure:
On the day of administration, observations were made approximately 0.5, 1, 2, 4, and 6 hours after the first administration. During day 2 to day 6 of the observation period, observations were made twice a day, once in the morning and once in the afternoon.
Observations included but not limited to: general conditions, behavioral activities, gait and posture, eyes, mouth, nose, gastrointestinal tract, skin hair and urogenital tract.
Weight data were expressed as mean ±standard deviation. Levene's test and one-way analysis of variance were used for comparison between groups. If there was a difference, Dunnet t test was then used.
The maximum tolerated dose refers to the dose administered when the animal was dying.

Where only a bound is given, the exact number is not on record here.

hERG potassium channel, sequence (Q12809 whole entry): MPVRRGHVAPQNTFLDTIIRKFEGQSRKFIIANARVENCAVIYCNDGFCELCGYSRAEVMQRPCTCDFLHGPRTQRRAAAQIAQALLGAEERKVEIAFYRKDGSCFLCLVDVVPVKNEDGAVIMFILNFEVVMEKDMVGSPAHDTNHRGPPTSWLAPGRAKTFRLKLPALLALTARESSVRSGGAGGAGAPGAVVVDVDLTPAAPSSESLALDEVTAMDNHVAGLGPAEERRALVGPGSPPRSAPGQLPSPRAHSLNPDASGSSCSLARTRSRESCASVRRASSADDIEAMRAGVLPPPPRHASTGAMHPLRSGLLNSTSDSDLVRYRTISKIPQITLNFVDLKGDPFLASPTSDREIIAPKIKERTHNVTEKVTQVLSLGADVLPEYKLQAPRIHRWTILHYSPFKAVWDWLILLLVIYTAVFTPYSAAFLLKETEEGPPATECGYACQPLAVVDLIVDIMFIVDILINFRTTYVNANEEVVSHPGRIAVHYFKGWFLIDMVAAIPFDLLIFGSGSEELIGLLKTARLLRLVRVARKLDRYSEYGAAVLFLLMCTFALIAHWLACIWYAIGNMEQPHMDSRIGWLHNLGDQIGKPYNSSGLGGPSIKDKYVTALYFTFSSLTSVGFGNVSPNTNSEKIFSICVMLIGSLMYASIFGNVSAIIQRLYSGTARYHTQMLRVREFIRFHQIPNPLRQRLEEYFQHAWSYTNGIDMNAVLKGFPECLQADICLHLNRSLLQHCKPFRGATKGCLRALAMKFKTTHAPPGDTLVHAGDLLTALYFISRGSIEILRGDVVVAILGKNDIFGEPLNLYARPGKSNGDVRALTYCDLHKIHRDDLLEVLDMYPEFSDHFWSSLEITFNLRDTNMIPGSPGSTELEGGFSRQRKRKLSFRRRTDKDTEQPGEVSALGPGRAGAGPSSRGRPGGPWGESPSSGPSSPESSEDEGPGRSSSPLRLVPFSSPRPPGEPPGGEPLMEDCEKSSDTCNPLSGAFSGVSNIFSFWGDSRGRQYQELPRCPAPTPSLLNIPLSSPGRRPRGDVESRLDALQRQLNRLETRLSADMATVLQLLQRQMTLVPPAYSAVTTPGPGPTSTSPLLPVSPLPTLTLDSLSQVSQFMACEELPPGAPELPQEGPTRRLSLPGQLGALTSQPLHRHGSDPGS

A word on the IC50: it is the concentration that inhibits the measured activity by half. The half-life is the time in which the quantity being followed falls by half. Lower therefore signals fast loss. What is called AUC(0-t) is the area under the concentration-time curve up to a stated or last time point. A high value points to high exposure. For orientation: Cmax means the peak of the concentration-time curve. A word on the Tmax: it is the time at which the peak concentration occurs. Take `CC(C)(O)c1cc2nn(CCS(=N)(=O)c3ccnc4ccccc34)cc2cc1NC(=O)c1cccc(C(F)(F)F)n1` (centres unmarked) [Compound I-10]: at hERG potassium channel (5 μM), the “Inhibition rate (%) of hERG current” value came to 0.1%. Also, the “Inhibition rate (%) of hERG current” value at hERG potassium channel (50 μM) is 0.9%. Besides, at hERG potassium channel (500 μM), the “Inhibition rate (%) of hERG current” value is recorded as 20.3%. Further, in data set [1], the IC50 was found to be 1 nM. Also, in the data set “in vivo [2]”, the half-life is 4.7 h, the exposure AUC(0-t) came out at 9000 ng·h/mL, the Cmax worked out at 1510 ng/mL and the Tmax stood at 6.3 h. The half-maximal inhibitory concentration (IC50) at IRAK4 kinase was determined as 1.1 nM. Moreover, the MTD at 6 days in “in vivo [3]” was greater than 2000 mg/kg.
`COc1cc2nn(CCS(=N)(=O)c3ccncc3)cc2cc1NC(=O)c1cccc(C(F)(F)F)n1` (centres unmarked) [Compound I-5]: the figures for the “Inhibition rate (%) of hERG current” value on hERG potassium channel (5 μM), at hERG potassium channel (50 μM) and at hERG potassium channel (500 μM) were 0.0%, -1.0% and 13.4%, respectively. In addition, the IC50 in data set [1] amounted to 0.7 nM; at IRAK4 kinase it was 0.4 nM. Moreover, in the data set “in vivo [2]”, the half-life is 5.1 h. In addition, in “in vivo [2]”, the AUC(0-t) was 8280 ng·h/mL. The Cmax in “in vivo [2]” came to 1400 ng/mL. The time to peak (Tmax) in the data set “in vivo [2]” turned out to be 6.2 h. The MTD at 6 days in “in vivo [3]” is greater than 2000 mg/kg.
Take `CC(C)(O)c1cc2nn(CCS(=N)(=O)c3ccccc3)cc2cc1NC(=O)c1cccc(C(F)(F)F)n1` (centres unmarked) [Compound I-2]: the entries for the “Inhibition rate (%) of hERG current” value at hERG potassium channel (5 μM), on hERG potassium channel (50 μM) and on hERG potassium channel (500 μM) were -0.5%, 0.7% and 12.3%, respectively. Besides, the IC50 in data set [1] worked out at 0.3 nM; at IRAK4 kinase it was 0.5 nM. In addition, the half-life in “in vivo [2]” was 5.5 h. Further, the exposure AUC(0-t) in the data set “in vivo [2]” worked out at 8100 ng·h/mL. In “in vivo [2]”, this compound showed a peak concentration (Cmax) of 1580 ng/mL. Moreover, the Tmax in the data set “in vivo [2]” was 6.5 h. The compound also displayed an MTD at 6 days in the data set “in vivo [3]” greater than 2000 mg/kg.
Consider `COc1cc2nn(CCS(=N)(=O)c3ccccc3)cc2cc1NC(=O)c1cccc(C(F)(F)F)n1` (centres unmarked) [Compound I-1], for which the “Inhibition rate (%) of hERG current” value at hERG potassium channel (5 μM) is reported as -1.0%. The “Inhibition rate (%) of hERG current” value on hERG potassium channel (50 μM) is on record as 2.3%. In addition, at hERG potassium channel (500 μM), the “Inhibition rate (%) of hERG current” value is recorded as 15.6%. This compound also registered a half-maximal inhibitory concentration (IC50) in data set [1] of 0.5 nM. In the data set “in vivo [2]”, the half-life is 5 h, the area under the curve AUC(0-t) came out at 8330 ng·h/mL, the Cmax amounted to 1600 ng/mL and the time of peak concentration (Tmax) is 6.2 h. The IC50 on IRAK4 kinase was determined as 0.3 nM. The compound also returned an MTD at 6 days in the data set “in vivo [3]” greater than 2000 mg/kg.
In the case of `CC(C)(O)c1cc2nn(CCS(=N)(=O)c3ncnc4ccccc34)cc2cc1NC(=O)c1cccc(C(F)(F)F)n1` (centres unmarked) [Compound I-34], the “Inhibition rate (%) of hERG current” value on hERG potassium channel (5 μM) is listed as -1.6%. For the same compound, the “Inhibition rate (%) of hERG current” value at hERG potassium channel (50 μM) worked out at 1.0%. Moreover, on hERG potassium channel (500 μM), the “Inhibition rate (%) of hERG current” value is 11.5%. The concentration for half-maximal inhibition (IC50) in data set [1] is 0.5 nM. In “in vivo [2]”, the half-life was 5.3 h, the AUC(0-t) was found to be 8000 ng·h/mL, the concentration peaked (Cmax) at 1630 ng/mL and the Tmax is 5.5 h. Moreover, the half-maximal inhibitory concentration (IC50) at IRAK4 kinase was 0.5 nM. In the data set “in vivo [3]”, this compound came in with an MTD at 6 days greater than 2000 mg/kg.
Take `COc1cc2nn(CCS(=N)(=O)c3ccncc3)cc2cc1NC(=O)c1cnn2cccnc12` (centres unmarked) [Compound I-21]: the “Inhibition rate (%) of hERG current” value on hERG potassium channel (5 μM) turned out to be 2.3%; on hERG potassium channel (50 μM) it was 2.1%; on hERG potassium channel (500 μM), 29.7%. Also, the half-inhibitory concentration (IC50) in data set [1] worked out at 0.9 nM; on IRAK4 kinase it was 0.5 nM. The same compound showed a half-life in the data set “in vivo [2]” of 5.2 h. The same compound returned an AUC(0-t) in the data set “in vivo [2]” of 9400 ng·h/mL. In addition, the peak level in “in vivo [2]” (Cmax) was 1520 ng/mL. Further, the Tmax in the data set “in vivo [2]” came out at 5.8 h. Also, in the data set “in vivo [3]”, the MTD at 6 days was greater than 2000 mg/kg.
As to `COc1cc2nn(CCS(=N)(=O)c3ncccn3)cc2cc1NC(=O)c1cccc(C(F)(F)F)n1` (centres unmarked) [Compound I-31], at hERG potassium channel (5 μM), the “Inhibition rate (%) of hERG current” value is listed as 1.7%. The “Inhibition rate (%) of hERG current” value at hERG potassium channel (50 μM) is -0.2%. The “Inhibition rate (%) of hERG current” value at hERG potassium channel (500 μM) is 6.7%. In data set [1], this compound showed a 50% inhibitory concentration (IC50) of 1.3 nM. In addition, in the data set “in vivo [2]”, the half-life was 4.5 h, the exposure AUC(0-t) came out at 7980 ng·h/mL, the highest concentration (Cmax) was determined as 1300 ng/mL and the time to peak (Tmax) stood at 4.8 h. For the same compound, the 50% inhibitory concentration (IC50) on IRAK4 kinase was determined as 0.6 nM. This compound also gave an MTD at 6 days in “in vivo [3]” greater than 2000 mg/kg.
`Cc1cc(-c2nc(C(=O)Nc3cc4cn(CCS(=N)(=O)c5ccnc6ccccc56)nc4cc3C(C)(C)O)co2)ccn1` (centres unmarked) [Compound I-29]: the “Inhibition rate (%) of hERG current” value at hERG potassium channel (5 μM) is given as -3.9%. Further, the “Inhibition rate (%) of hERG current” value on hERG potassium channel (50 μM) was determined as 1.2%. The “Inhibition rate (%) of hERG current” value at hERG potassium channel (500 μM) is 13.9%. Besides, in data set [1], it took 0.9 nM to reach half-maximal inhibition (IC50). Besides, in the data set “in vivo [2]”, the half-life is 5.8 h, the AUC(0-t) was found to be 8130 ng·h/mL, the peak concentration (Cmax) came out at 1370 ng/mL and the Tmax stood at 5.9 h. Also, at IRAK4 kinase, the IC50 was found to be 0.6 nM. The MTD at 6 days in the data set “in vivo [3]” is greater than 2000 mg/kg.
